{
  "source": "patent US20130035257A1",
  "about": "“MICROFLUIDIC ARRAYS AND METHODS FOR THEIR PREPARATION AND USE” (UNIVERSITY OF BRITISH COLUMBIA, priority 2011, published 2013)",
  "key": {"[1]": {"test_system": "human MCF-7 breast tumor cells", "settings": "MCF-7 cells in alginate-poly-L-lysine-alginate microcapsules, MTT assay; cited from earlier work"}, "[2]": {"test_system": "LCC6/Her2 breast tumor cells", "experiment": "in vitro", "format": "cell-based", "procedure": "(§1) Doxorubicin (Dox) is an anthracycline molecule that intercalates in DNA and inhibits topoisomerase II. As an anticancer agent, the drug inhibits RNA and DNA synthesis. During on-chip drug testing, the Dox solution was prepared with 0.2% dimethylsulfoxide (DMSO) and DMEM culture medium. After visual confirmation of spheroid formation at four days, the drug-free culture media was replaced with 400, 800, 1200, and 1600 nM Dox solutions. The drug solution was continuously perfused through the device at a rate of 0.25 μl min^−1 for two days. DMSO controls, in which the corresponding amount of DMSO in culture medium with no drug, were also carried out. Toxicity was examined after 48 h of drug dosing by quantifying cell viability.\n(§2) Cell viability was indicated with live/dead calcein AM/ethidium homodimer-1 stains (Invitrogen), which were applied through pressure-driven flow control to the cells while they were entrapped in alginate in the microdevice. […]\n(§3) All stained samples were imaged using fluorescence microscopy. […] The number of living cells NG was calculated by counting the number of pixels in the green (living cells) channel in the confocal images and normalizing for the size of one cell. The number of dead cells NR was similarly calculated using the red pixels. […]\n(§4) The survival rate was calculated as NG/(NG+NR). The proliferation rate is calculated as (N4−N1)/N1 before drug treatment, and as (N6−N4)/N4 after drug treatment, where Nx is the number of cells on the xth day.\n(§5) Images from confocal microscopy were used to determine cell survival rate and proliferation inside the three dimensional multicellular aggregates after exposure to different doxorubicin concentrations. […] Doxorubicin was the perfused with (a) 0, (b) 400, (c) 800, (d) 1200, and (e) 1600 nM doxorubicin for two days, and cell viability was measured at the end of that period after staining with a live/dead viability kit and confocal imaging. […] The number of living cells NG was calculated by counting the number of pixels (living cells) channel in the confocal image and normalizing for the size of one cell. […]"}, "[3]": {"settings": "at 25° C.; cited from earlier work"}, "[4]": {"test_system": "LCC6/Her2 breast tumor cells", "experiment": "Cell proliferation rate of tumor spheroids on-chip from confocal cell counts", "format": "cell-based, human", "settings": "1600 nM Dox exposure, 2 days", "procedure": "as §1\nas §3, with “microscopy. The imaging system consisted of a fluorescent microscope (Nikon TE2000U) and a cooled, color CCD camera (Retiga).” for “microscopy.”\nThe survival rate was calculated as NG/(NG+NR). The proliferation rate is calculated as (N4−N1)/N1 before drug treatment, and as (N6−N4)/N4 after drug treatment, where Nx is the number of cells on the xth day. […]"}, "[5]": {"test_system": "EMT-6 mammary sarcoma cells", "settings": "EMT-6 spheroids created in a spinner flask, different exposure doses; cited from earlier work"}, "in vitro": {"experiment": "in vitro", "format": "cell-based", "settings": "human", "procedure": "as §1, §2, §3, §4, §5"}, "LCC6/Her2 cells": {"test_system": "LCC6/Her2 cells", "experiment": "MTS assay of cell activity, cells cultured within alginate gel beads", "format": "cell-based, human", "settings": "48 h treatment with 800 nM doxorubicin", "procedure": "as §1\nFor LCC6/Her2 cells cultured within alginate gel beads 100, cell activity as measured using the standard MTS assay was 35%, while cell viability as measured using the Live/Dead stains was 83%, in both cases after 48 h treatment with 800 nM doxorubicin. […] Thus, the absolute number of surviving cells, in addition to the percentage of living or dead cells, may be an important parameter in drug screening. This can be obtained by processing the data from image-based high-throughput screening systems."}, "A549 human lung cells": {"test_system": "A549 human lung cells", "settings": "cited from earlier work"}},
  "data": [
    {"smiles": "O=c1[nH]cc(F)c(=O)[nH]1", "note": "[5-fluorouracil]", "values": [
      {"measurement": "inhibition rates in multicellular spheroids versus monolayers", "setting": "[1]", "result": "lower inhibition rates in multicellular spheroids than in monolayers"}
    ]},
    {"smiles": "CCCCCCCCCCCCCCCC", "note": "[Hexadecane, n-hexadecane]", "values": [
      {"measurement": "additional toxicity from droplet formation solvent (survival rate, bead versus microchannel)", "setting": "[2]", "result": "did not indicate any additional toxicity effects"},
      {"measurement": "solubility in the aqueous phase", "setting": "[3]", "result": "9.0×10^−8 g/100 g water"}
    ]},
    {"smiles": "COc1cccc2c1C(=O)c1c(O)c3c(c(O)c1C2=O)C[C@@](O)(C(=O)CO)C[C@@H]3O[C@H]1C[C@H](N)[C@H](O)[C@H](C)O1", "note": "[doxorubicin, Doxorubicin]", "values": [
      {"measurement": "proliferation rate change (FIG. 10)", "setting": "[4]", "result": "marked proliferation decrease"},
      {"measurement": "resistance of spheroids versus monolayer cells", "setting": "[5]", "result": "higher resistance"},
      {"measurement": "inhibition rates in multicellular spheroids versus monolayers", "setting": "[1]", "result": "lower inhibition rates in multicellular spheroids than in monolayers"},
      {"measurement": "cytotoxicity at 48 h, 1600 nM", "setting": "in vitro", "result": 20, "unit": "%"},
      {"measurement": "viability at 48 h, 800 nM", "setting": "in vitro", "result": 83, "unit": "%"},
      {"measurement": "cell activity as measured using the standard MTS assay", "setting": "LCC6/Her2 cells", "result": 35, "unit": "%"},
      {"measurement": "multicellular resistance index, ratio [IC50, spheroid/IC50, monolayer]", "setting": "A549 human lung cells", "result": 35}
    ]},
    {"smiles": "CO[C@@]12[C@H](COC(N)=O)C3=C(C(=O)C(C)=C(N)C3=O)N1C[C@@H]1N[C@@H]12", "note": "[mitomycin C]", "values": [
      {"measurement": "inhibition rates in multicellular spheroids versus monolayers", "setting": "[1]", "result": "lower inhibition rates in multicellular spheroids than in monolayers"}
    ]},
    {"smiles": "CC[C@]1(O)C[C@@H]2CN(CCc3c([nH]c4ccccc34)[C@@](C(=O)OC)(c3cc4c(cc3OC)N(C)[C@H]3[C@@](O)(C(=O)OC)[C@H](OC(C)=O)[C@]5(CC)C=CCN6CC[C@]43[C@@H]65)C2)C1", "note": "[vinblastine]", "values": [
      {"measurement": "multicellular resistance index, ratio [IC50, spheroid/IC50, monolayer]", "setting": "A549 human lung cells", "result": 6625}
    ]}
  ]
}
